From article PMC7914897, “Cytotoxic Potential of a-Azepano- and 3-Amino-3,4-SeCo-Triterpenoids” (International Journal of Molecular Sciences, 2021)
Where two headings read alike, the source gives them in different places.

What was measured:
[1] = system: TK-10 (Renal cancer); assay: NCI-60 screen (SRB, 48 h); conditions: Homo sapiens; for GI50: TK-10; for IC (TGI): TK-10, 48 h, read-out: TGI; for CC50: TK-10, read-out: LC50
[2] = system: CAKI-1 (Renal cancer); assay: NCI-60 screen (SRB, 48 h); conditions: for GI50 / IC (TGI) / CC50: Homo sapiens; for GI50: CAKI-1; for IC (TGI): CAKI-1, 48 h, read-out: TGI; for CC50: CAKI-1, read-out: LC50
[3] = system: OVCAR-8 (Ovarian cancer); assay: NCI-60 screen (SRB, 48 h); conditions: for GI50: OVCAR-8; for IC (TGI): OVCAR-8, 48 h, read-out: TGI
[4] = system: panel of approximately 60 cancer cell lines; assay: NCI-60 screen (SRB, 48 h), full panel; conditions: for Positive Cytostatic Effect (cell lines with percent growth 0 to 50 / total) / Positive Cytotoxic Effect (cell lines with percent growth < 0 / total) / number of cancer cell lines the compound was active against: 1 dose 10 µM; for activity at 10 µM / IC (TGI): 48 h; for IC (TGI): read-out: TGI MG_MID60, average over all cell lines
[5] = system: SF-539 (CNS cancer); assay: NCI-60 screen (SRB, 48 h); conditions: Homo sapiens; for GI50: SF-539; for IC (TGI): SF-539, 48 h, read-out: TGI
[6] = system: A375 (malignant melanoma); assay: SRB cytotoxicity assay, 72 h; assay type: cell-based, human; conditions: Homo sapiens, A-375, 72 h, A375, 72 h, cut-off 30 µM; read-out: EC50
Outline: (§1)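 Cytotoxicity is measured colorimetrically with sulforhodamine B after 72 h exposure to compound concentrations of 0–30 µM, added 24 h after seeding of exponentially growing cells. Survival relative to untreated wells yields EC50.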

[7] = system: MCF-7 (breast carcinoma); assay: SRB cytotoxicity assay, 72 h; assay type: cell-based, human; conditions: Homo sapiens, MCF7; MCF-7, 72 h, cut-off 30 µM; read-out: EC50
Outline: as §1

[8] = system: FaDu (hypopharyngeal carcinoma); assay: SRB cytotoxicity assay, 72 h; assay type: cell-based, human; conditions: Homo sapiens, cut-off 30 µM, read-out: EC50
Outline: as §1

[9] = system: HT29 (colorectal carcinoma); assay: SRB cytotoxicity assay, 72 h; assay type: cell-based, human; conditions: Homo sapiens, HT-29; HT29, 72 h, cut-off 30 µM; read-out: EC50
Outline: as §1

[10] = system: A2780 (ovarian carcinoma); assay: SRB cytotoxicity assay, 72 h; assay type: cell-based, human; conditions: Homo sapiens; A2780, 72 h, cut-off 30 µM; read-out: EC50
Outline: as §1

[11] = system: NCI-H23 (NSC lung cancer); assay: NCI-60 screen (SRB, 48 h); conditions: Homo sapiens; for GI50: NCI-H23; for IC (TGI): NCI-H23, 48 h, read-out: TGI
[12] = system: NCI-H322M (NSC lung cancer); assay: NCI-60 screen (SRB, 48 h); conditions: Homo sapiens; for IC (TGI): 48 h, read-out: TGI; for CC50: read-out: LC50
[13] = system: CNS cancer subpanel; assay: NCI-60 screen, subpanel; conditions: Homo sapiens; for IC (TGI): 48 h, read-out: TGI MG_MID; for GI50: read-out: GI50 MG_MID; for CC50: read-out: LC50 MG_MID
[14] = system: SF-268 (CNS cancer); assay: NCI-60 screen (SRB, 48 h); conditions: Homo sapiens; for GI50: SF-268; for IC (TGI): SF-268, 48 h, read-out: TGI
[15] = system: HS 578T (Breast cancer); assay: NCI-60 screen (SRB, 48 h); conditions: Homo sapiens; for IC (TGI): 48 h, read-out: TGI; for CC50: read-out: LC50
[16] = system: M14 (Melanoma); assay: NCI-60 screen (SRB, 48 h); conditions: Homo sapiens; for GI50: M14; for IC (TGI): M14, 48 h, read-out: TGI
[17] = system: A549/ATCC (NSC lung cancer); assay: NCI-60 screen (SRB, 48 h); conditions: Homo sapiens; for GI50: A549; for IC (TGI): A549, 48 h, read-out: TGI
[18] = system: Ovarian Cancer subpanel; assay: NCI-60 screen, subpanel; conditions: Homo sapiens; for IC (TGI): 48 h, read-out: TGI MG_MID; for GI50: read-out: GI50 MG_MID; for CC50: read-out: LC50 MG_MID
[19] = system: SW-620 (Colon cancer); assay: NCI-60 screen (SRB, 48 h); conditions: Homo sapiens; for GI50: SW-620; for IC (TGI): SW-620, 48 h, read-out: TGI
[20] = system: UACC-62 (Melanoma); assay: NCI-60 screen (SRB, 48 h); conditions: Homo sapiens; for GI50: UACC-62; for IC (TGI): UACC-62, 48 h, read-out: TGI; for CC50: UACC-62, read-out: LC50
[21] = system: NIH 3T3 (non-malignant mouse fibroblasts); assay: SRB cytotoxicity assay, 72 h; assay type: cell-based; conditions: Mus musculus, NIH3T3; NIH 3T3, 72 h, cut-off 30 µM; read-out: EC50
Outline: as §1

[22] = system: PC-3 (Prostate cancer); assay: NCI-60 screen (SRB, 48 h); conditions: Homo sapiens; for GI50: PC-3; for IC (TGI): PC-3, 48 h, read-out: TGI; for CC50: PC-3, read-out: LC50
[23] = system: ACHN (Renal cancer); assay: NCI-60 screen (SRB, 48 h); conditions: Homo sapiens; for IC (TGI): 48 h, read-out: TGI
[24] = system: SN12C (Renal cancer); assay: NCI-60 screen (SRB, 48 h); conditions: Homo sapiens; for IC (TGI): 48 h, read-out: TGI; for CC50: read-out: LC50
[25] = Homo sapiens, read-out: Mean Growth, %
[26] = Homo sapiens, read-out: Range of Growth, %
[27] = Homo sapiens, read-out: GI50 MG_MID60
[28] = Homo sapiens, read-out: GI50 against all human tumor cell lines
[29] = Homo sapiens, read-out: GI50 against the most sensitive cell lines

C=C(C)[C@@H]1CCC=C2CC[C@]3(C)[C@H](CC[C@@H]4[C@@]5(C)CCCNC(C)(C)[C@@H]5CC[C@]43C)[C@H]21 [Compound 8]
GI50 [1]: 1880 nM | IC (TGI) [1]: 3.45 µM | CC50 [1]: 6.32 µM | Growth % of the Most Sensitive Cell Lines ([2]; CAKI-1, 1 dose 10 µM): −92.49% | GI50 [2]: 1810 nM | IC (TGI) [2]: 3.22 µM | CC50 [2]: 5.73 µM | GI50 ([3]; Homo sapiens): 1990 nM | IC (TGI) ([3]; Homo sapiens): 3.94 µM | CC50 ([3]; Homo sapiens, OVCAR-8, read-out: LC50): 7.79 µM | Positive Cytostatic Effect (cell lines with percent growth 0 to 50 / total) [4]: 7/60 | Positive Cytotoxic Effect (cell lines with percent growth < 0 / total) [4]: 49/60 | number of cancer cell lines the compound was active against [4]: 55 cell lines | activity at 10 µM [4, 25]: -46.7% | activity at 10 µM [4, 26]: -99.5 to 75.9% | IC (TGI) ([4]; Homo sapiens): 3.53 µM | GI50 [4, 27]: 1730 nM | GI50 [4, 28]: < 3000 nM | GI50 [4, 29]: 200 to 940 nM | GI50 [5]: 1520 nM | IC (TGI) [5]: 2.99 µM | EC50 [6]: 1780 ± 100 nM | EC50 [7]: 1410 ± 100 nM | EC50 [8]: 1750 ± 200 nM | EC50 [9]: 1300 ± 200 nM | EC50 [10]: 1880 ± 200 nM | GI50 [11]: 1830 nM | IC (TGI) [11]: 3.4 µM | GI50 [12]: 1730 nM | IC (TGI) [12]: 3.14 µM | CC50 [12]: 5.7 µM | IC (TGI) [13]: 3.31 µM | GI50 [13]: 1790 nM | CC50 [13]: 5.97 µM | GI50 [14]: 1910 nM | IC (TGI) [14]: 3.64 µM | GI50 [15]: 1870 nM | IC (TGI) [15]: 4.39 µM | CC50 [15]: 15.9 µM | GI50 [16]: 1890 nM | IC (TGI) [16]: 3.38 µM | GI50 [17]: 2020 nM | IC (TGI) [17]: 3.73 µM | CC50 ([17]; A549, read-out: LC50): 6.89 µM | IC (TGI) [18]: 3.5 µM | GI50 [18]: 1840 nM | CC50 [18]: 6.78 µM | GI50 [19]: 1920 nM | IC (TGI) [19]: 3.75 µM | GI50 [20]: 1730 nM | IC (TGI) [20]: 3.16 µM | CC50 [20]: 5.76 µM | EC50 [21]: 2410 ± 500 nM | GI50 [22]: 1650 nM | IC (TGI) [22]: 3.06 µM | CC50 [22]: 5.68 µM | GI50 [23]: 1840 nM | IC (TGI) [23]: 3.26 µM | GI50 [24]: 1790 nM | IC (TGI) [24]: 3.31 µM | CC50 [24]: 6.12 µM

CC(C)=C1CCC=C2CC[C@]3(C)[C@H](CC[C@@H]4[C@@]5(C)CCCNC(C)(C)[C@@H]5CC[C@]43C)[C@H]21 [Compound 9]
GI50 [1]: 1810 nM | IC (TGI) [1]: 3.37 µM | CC50 [1]: 6.3 µM | GI50 [2]: 1690 nM | IC (TGI) [2]: 3.05 µM | CC50 [2]: 5.53 µM | GI50 ([3]; Homo sapiens): 2010 nM | IC (TGI) ([3]; Homo sapiens): 4.25 µM | Growth % of the Most Sensitive Cell Lines ([3]; OVCAR-8, 1 dose 10 µM): −87.34% | Positive Cytostatic Effect (cell lines with percent growth 0 to 50 / total) [4]: 15/58 | Positive Cytotoxic Effect (cell lines with percent growth < 0 / total) [4]: 24/58 | number of cancer cell lines the compound was active against [4]: 36 cell lines | activity at 10 µM [4, 25]: 13.6% | activity at 10 µM [4, 26]: -100 to 107% | IC (TGI) ([4]; Homo sapiens): 3.35 µM | GI50 [4, 27]: 1750 nM | GI50 [4, 28]: < 3000 nM | GI50 [4, 29]: 200 to 940 nM | CC50 ([4]; Homo sapiens, read-out: LC50 MG_MID60, average over all cell lines): 6.43 µM | GI50 [5]: 1690 nM | IC (TGI) [5]: 3.13 µM | CC50 ([5]; SF-539, read-out: LC50): 5.8 µM | EC50 [6]: 1710 ± 100 nM | EC50 [7]: 1520 nM | EC50 [8]: 1580 ± 200 nM | EC50 [9]: 1180 ± 100 nM | EC50 [10]: 2190 ± 100 nM | GI50 [11]: 1780 nM | IC (TGI) [11]: 3.37 µM | CC50 ([11]; NCI-H23, read-out: LC50): 6.39 µM | GI50 [12]: 1680 nM | IC (TGI) [12]: 3.07 µM | CC50 [12]: 5.61 µM | IC (TGI) [13]: 3.44 µM | GI50 [13]: 1830 nM | CC50 [13]: 6.61 µM | GI50 [14]: 1970 nM | IC (TGI) [14]: 3.71 µM | CC50 ([14]; SF-268, read-out: LC50): 6.98 µM | GI50 [15]: 1790 nM | IC (TGI) [15]: 4.04 µM | CC50 [15]: 9.11 µM | GI50 [16]: 1730 nM | IC (TGI) [16]: 3.26 µM | CC50 ([16]; M14, read-out: LC50): 6.12 µM | GI50 [17]: 1790 nM | IC (TGI) [17]: 3.52 µM | IC (TGI) [18]: 3.51 µM | GI50 [18]: 1860 nM | CC50 [18]: 6.19 µM | GI50 [19]: 1660 nM | IC (TGI) [19]: 3.23 µM | GI50 [20]: 1770 nM | IC (TGI) [20]: 3.22 µM | CC50 [20]: 5.85 µM | EC50 [21]: 2650 ± 500 nM | GI50 [22]: 1580 nM | IC (TGI) [22]: 3.02 µM | CC50 [22]: 5.78 µM | GI50 [23]: 1760 nM | IC (TGI) [23]: 3.14 µM | CC50 ([23]; read-out: LC50): 5.62 µM | GI50 [24]: 1830 nM | IC (TGI) [24]: 3.44 µM | CC50 [24]: 6.45 µM
